Test results as given in PubChem BioAssay AID248 (DTP/NCI, 2004).
Values joined by “and” are separate entries in the source; they are usually repeats but may differ in a detail not shown here. Identical values can stand only once. Inconclusive results and toxic doses are left out. No stated cut-off is given here; in the data, active means T/C of 150% or more; inactive means T/C below 125%.

System: L1210 leukemia ip in BDF1 mice, survival T/C
Assay: NCI In Vivo Anticancer Drug Screen. Data for tumor model L1210 Leukemia (intraperitoneal) in B6D2F1 (BDF1) mice
Conditions: endpoint: mean survival time, higher = longer survival
Outline: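 Ratio derived from survival: compound-dosed mice over vehicle-dosed mice, all bearing a transplantable tumor.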

[1] = dose: 50.0 mg/kg/injection, schedule: Q01DX001 (ip), vehicle: saline
[2] = dose: 100.0 mg/kg/injection, schedule: Q01DX001 (ip), vehicle: saline
[3] = dose: 200.0 mg/kg/injection, schedule: Q01DX001 (ip), vehicle: saline
[4] = dose: 400.0 mg/kg/injection, schedule: Q01DX001 (ip), vehicle: saline
[5] = dose: 100.0 mg/kg/injection, schedule: Q01DX009 (ip), vehicle: saline with Tween-80
[6] = dose: 100.0 mg/kg/injection, schedule: Q04DX003 (ip), vehicle: saline with Tween-80
[7] = dose: 200.0 mg/kg/injection, schedule: Q01DX009 (ip), vehicle: saline with Tween-80
[8] = dose: 200.0 mg/kg/injection, schedule: Q04DX003 (ip), vehicle: saline with Tween-80
[9] = dose: 400.0 mg/kg/injection, schedule: Q01DX009 (ip), vehicle: saline with Tween-80
[10] = dose: 400.0 mg/kg/injection, schedule: Q04DX003 (ip), vehicle: saline with Tween-80
[11] = dose: 100.0 mg/kg/injection, schedule: Q04DX003 (ip), vehicle: Klucel (hydroxypropylcellulose) (HPC)
[12] = dose: 200.0 mg/kg/injection, schedule: Q04DX003 (ip), vehicle: Klucel (hydroxypropylcellulose) (HPC)
[13] = dose: 400.0 mg/kg/injection, schedule: Q04DX003 (ip), vehicle: Klucel (hydroxypropylcellulose) (HPC)
[14] = dose: 12.5 mg/kg/injection, schedule: Q01DX009 (ip), vehicle: saline
[15] = dose: 25.0 mg/kg/injection, schedule: Q01DX009 (ip), vehicle: saline
[16] = dose: 100.0 mg/kg/injection, schedule: Q01DX009 (ip), vehicle: Klucel (hydroxypropylcellulose) (HPC)
[17] = dose: 200.0 mg/kg/injection, schedule: Q01DX009 (ip), vehicle: Klucel (hydroxypropylcellulose) (HPC)

Measured: T/C

CC(=O)c1cc(CN(CCCl)CCCl)c(O)c(CN(CCCl)CCCl)c1O
inactive: dose: 3.1 mg/kg/injection, schedule: Q01DX009 (ip), vehicle: Klucel (hydroxypropylcellulose) (HPC) 111 % of control | dose: 5.5 mg/kg/injection, schedule: Q01DX009 (ip), vehicle: Klucel (hydroxypropylcellulose) (HPC) 114 % of control | dose: 6.2 mg/kg/injection, schedule: Q01DX009 (ip), vehicle: Klucel (hydroxypropylcellulose) (HPC) 111 % of control | dose: 8.3 mg/kg/injection, schedule: Q01DX009 (ip), vehicle: Klucel (hydroxypropylcellulose) (HPC) 120 % of control | dose: 15.0 mg/kg/injection, schedule: Q01DX001 (ip), vehicle: carboxymethylcellulose (CMC) 122 % of control | dose: 23.0 mg/kg/injection, schedule: Q01DX001 (ip), vehicle: carboxymethylcellulose (CMC) 122 % of control | dose: 30.0 mg/kg/injection, schedule: Q01DX009 (ip), vehicle: carboxymethylcellulose (CMC) 108 % of control | dose: 53.0 mg/kg/injection, schedule: Q01DX001 (ip), vehicle: carboxymethylcellulose (CMC) 122 % of control

CCCCCN(CCCCC)CCCNc1c2c(nc3ccc(Cl)cc13)CCCC2
inactive: [1] 96 % of control

O=C(O)C1CCCN1Cc1cc2ccccc2c2ccccc12 (stereo not given)
inactive: [1] 112 % of control | [2] 96 % of control | [3] 96 % of control | [4] 96 % of control

Cc1ccc(NC(=O)N(C)N)cc1
inactive: dose: 75.0 mg/kg/injection, schedule: Q01DX001 (ip), vehicle: carboxymethylcellulose (CMC) 102 % of control | dose: 150.0 mg/kg/injection, schedule: Q01DX001 (ip), vehicle: carboxymethylcellulose (CMC) 104 % of control

C[N+](C)=C(Cl)Cl
inactive: [2] 97 % of control | [3] 97 % of control | [4] 95 % of control

ClCCCC1(c2ccc(Oc3ccccc3)cc2)OCCO1
inactive: [5] 88 % of control | [6] 105 % of control | [7] 92 % of control | [8] 95 % of control | [9] 93 % of control | [10] 94 % of control

O=S(=O)(O)c1cccc2c(S(=O)(=O)O)cccc12
inactive: [11] 107 % of control | [12] 100 % of control | [13] 97 % of control

O=C(C1C2C=CC(C2)C1C(=O)N1CCOCC1)N1CCOCC1 (stereo not given)
inactive: [6] 107 % of control | [8] 102 % of control | [10] 107 % of control

COc1ccccc1C1OCC(C)(C)N1C (stereo not given)
inactive: [5] 101 % of control | [11] 97 % of control and 105 % of control | [7] 95 % of control | [12] 95 % of control | [9] 102 % of control | [13] 94 % of control and 93 % of control

CCOC(=O)N1CCc2nc3ccc(Cl)cc3cc21
inactive: dose: 100.0 mg/kg/injection, schedule: Q01DX001 (ip), vehicle: saline with Tween-80 95 % of control | [5] 104 % of control | dose: 200.0 mg/kg/injection, schedule: Q01DX001 (ip), vehicle: saline with Tween-80 93 % of control | [7] 110 % of control | dose: 400.0 mg/kg/injection, schedule: Q01DX001 (ip), vehicle: saline with Tween-80 98 % of control | [9] 106 % of control

CC(C)=CCC(O)(c1ccccc1)C(C)CN(C)C (stereo not given)
inactive: [14] 94 % of control | dose: 12.5 mg/kg/injection, schedule: Q04DX003 (ip), vehicle: saline 94 % of control | [15] 106 % of control and 103 % of control | dose: 25.0 mg/kg/injection, schedule: Q04DX003 (ip), vehicle: saline 94 % of control | dose: 50.0 mg/kg/injection, schedule: Q01DX009 (ip), vehicle: Klucel (hydroxypropylcellulose) (HPC) 100 % of control | dose: 50.0 mg/kg/injection, schedule: Q01DX009 (ip), vehicle: saline 101 % of control and 96 % of control | dose: 50.0 mg/kg/injection, schedule: Q04DX003 (ip), vehicle: saline 118 % of control | [16] 97 % of control | dose: 100.0 mg/kg/injection, schedule: Q01DX009 (ip), vehicle: saline 98 % of control | [17] 95 % of control

Cc1csc(C)n1.Cc1csc(C)n1.Cc1csc(C)n1.Cc1csc(C)n1.[Cl][Rh][Cl]
inactive: dose: 3.13 mg/kg/injection, schedule: Q04DX003 (ip), vehicle: distilled water + Tween-80 105 % of control | dose: 6.25 mg/kg/injection, schedule: Q04DX003 (ip), vehicle: distilled water + Tween-80 102 % of control | dose: 12.5 mg/kg/injection, schedule: Q04DX003 (ip), vehicle: distilled water + Tween-80 100 % of control | dose: 25.0 mg/kg/injection, schedule: Q04DX003 (ip), vehicle: distilled water + Tween-80 110 % of control

CCOC(=O)CC1NCCc2c1[nH]c1ccccc21 (stereo not given)
inactive: dose: 6.25 mg/kg/injection, schedule: Q01DX001 (ip), vehicle: saline sonified 93 % of control | dose: 12.5 mg/kg/injection, schedule: Q01DX001 (ip), vehicle: saline sonified 98 % of control | dose: 25.0 mg/kg/injection, schedule: Q01DX001 (ip), vehicle: saline sonified 97 % of control

CCN(CC)CCSC(=O)c1ccc([N+](=O)[O-])cc1
inactive: [2] 98 % of control | [3] 104 % of control

CC(C)NC(=O)C1CC2c3cccc4[nH]c(Br)c(c34)CC2N(C)C1 (stereo not given)
inactive: dose: 5.0 mg/kg/injection, schedule: Q04DX003 (ip), vehicle: saline with Tween-80 94 % of control | dose: 10.0 mg/kg/injection, schedule: Q04DX003 (ip), vehicle: saline with Tween-80 93 % of control | dose: 20.0 mg/kg/injection, schedule: Q04DX003 (ip), vehicle: saline with Tween-80 88 % of control

Cc1ccc(NC(=O)Oc2ccc(Nc3ccccc3)cc2)cc1
inactive: [16] 103 % of control | dose: 100.0 mg/kg/injection, schedule: Q04DX002 (ip), vehicle: Klucel (hydroxypropylcellulose) (HPC) 98 % of control | [17] 95 % of control | dose: 200.0 mg/kg/injection, schedule: Q04DX002 (ip), vehicle: Klucel (hydroxypropylcellulose) (HPC) 95 % of control | dose: 400.0 mg/kg/injection, schedule: Q01DX009 (ip), vehicle: Klucel (hydroxypropylcellulose) (HPC) 98 % of control | dose: 400.0 mg/kg/injection, schedule: Q04DX002 (ip), vehicle: Klucel (hydroxypropylcellulose) (HPC) 91 % of control

CCCN(CCC)CC(C)O (stereo not given)
inactive: dose: 100.0 mg/kg/injection, schedule: Q04DX003 (ip), vehicle: saline 93 % of control | dose: 200.0 mg/kg/injection, schedule: Q04DX003 (ip), vehicle: saline 97 % of control

NCCN1CCc2ccccc2C1
inactive: dose: 6.25 mg/kg/injection, schedule: Q01DX009 (ip), vehicle: saline 93 % of control | [14] 106 % of control | [15] 102 % of control
